Measurements as given in US8759558B2, “Sulphur containing lipids for use as food supplement or as medicament” (Pronova Biopharma Norge AS, priority 2008, dated 2014).
pEC50: −log10 of the molar value.

Key:
[1] = molecular target: T1, PPARα (Homo sapiens, UniProt Q07869); test: PPARα activation in-vitro, mammalian-one-hybrid (M1H) luciferase reporter assay, concentration response; format: cell-based; details: GAL4-DBD-PPARα-LBD, transiently transfected HEK293 cells; for PPARα Efficacy: positive control GW7647
T1 construct: expressed in transfected cells; host or cells: HEK293 cells, transiently transfected
T1 sequence (Q07869 239-466 limits assumed): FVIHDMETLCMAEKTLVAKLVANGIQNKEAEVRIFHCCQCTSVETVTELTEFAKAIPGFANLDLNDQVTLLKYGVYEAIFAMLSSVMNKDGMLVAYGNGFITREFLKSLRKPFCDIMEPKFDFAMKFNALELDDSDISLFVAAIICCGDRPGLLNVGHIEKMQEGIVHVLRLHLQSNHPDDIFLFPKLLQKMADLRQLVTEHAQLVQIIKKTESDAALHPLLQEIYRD
Description: The assay was carried out in-vitro using mammalian-one-hybrid assays (M1H) comprising GAL4-DNA binding domain-PPARα-LBD fusion constructs in conjunction with 5×GAL4-sites driven Photinus pyralis luciferase reporter construct in transiently transfected HEK293 cells.

[2] = test system: Wistar rat; details: Wistar rat model; Willumsen et al 1997; cited from earlier work

pEC50 [1] | PPARα Efficacy [1] [%] | SMILES | plasma triglycerides [2]
6.54 | 84 | CC/C=C\C/C=C\C/C=C\C/C=C\C/C=C\CCCCSC(CC)(CC)C(=O)O [Compound (12), 2-ethyl-2-((5Z,8Z,11Z,14Z,17Z)-icosa-5,8,11,14,17-pentaenylthio)butanoic acid] | –
– | – | CC/C=C\C/C=C\C/C=C\C/C=C\CCSCC(=O)OC [Methyl (all-Z)-3-thia-6,9,12,15-octadecatetraenoate] | lowered plasma triglycerides to a similar extent
– | 100 | CC(C)(Sc1ccc(CCN(CCCCC2CCCCC2)C(=O)NC2CCCCC2)cc1)C(=O)O [GW7647] | –
